Results taken from patent EP4806904A1, “POLYPEPTIDE AND USE THEREOF” (Sichuan Gooddoctor Panxi Pharmaceutical Co. Ltd, priority 2023, dated 2026).

Assays:
[1] = test system: primary neural stem cells (NSCs); assay: Proliferation of primary neural stem cells, BrdU incorporation (Example 2.1); assay type: cell-based, SD rats; conditions: 0.02, 0.1, 0.5 mg/mL, 48 h, vs control group
Method: (§1) This part of the experiment requires feeding male and female rats in advance, then extracting hippocampal neural stem cells from newborn SD rats within 24 h of birth, culturing them to P3 for identification, and then using them for experiments.
(§2) Extraction and culture of primary neural stem cells (NSCs): Hippocampal neural stem cells were extracted from neonatal SD mice 24 h after birth. The procedure is as follows: first, the neonatal rats were disinfected by soaking in 75% ethanol, then transferred to a biological safety cabinet for manipulation under aseptic conditions. After the entire brain was removed from the neonatal mouse, it was immediately placed in cold D-Hanks solution to remove non-neural tissue. Under a dissecting microscope, the meninges were carefully removed and the hippocampal structures on both sides were separated. […]
Medium-sized neurospheres formed from P3-P4 generations were centrifuged at 800 rpm for 5 min, the supernatant was discarded, a small amount of complete medium was added and pipetted to form a single-cell suspension, the cells were resuspended, counted, and seeded at 1.0 x 10^5 cells/mL into 24-well plates coated with 25 µg/mL PLL. […] Immunofluorescence staining was performed 4 h later, and the cells were then observed and photographed under a fluorescence microscope. The BrdU-positive cell rate was statistically analyzed.

tMCAO rats = assay: Cortical index 14 days after ischemia-reperfusion injury; assay type: in vivo, SD rats; conditions: 10 mg/kg, tail vein, treatment for 14 days, P<0.01
Method: (§3) Experimental animals, model establishment, grouping and drug administration are the same as in Example 5.
(§4) The cortical index was calculated for each group of rats 14 days after ischemia-reperfusion injury. tMCAO rats were treated with the polypeptide compound 1 of the invention for 14 days, and the expression of PSD95 and SYP was detected by Western blot.

[2] = test system: primary neural stem cells (NSCs); assay: Differentiation of primary neural stem cells, MAP-2/GFAP immunofluorescence (Example 2.2); assay type: cell-based, SD rats; conditions: 0.02, 0.1, 0.5 mg/mL, 4 days, vs control group
Method: as §1
as §2, with “separated. The tissue was mechanically broken into flocculent pieces with a scalpel, pipetted, and the tissue sample was transferred to a 15 mL centrifuge tube and centrifuged at 800 rpm for 5 min.” for “separated.”
Medium-sized neurospheres cultured at P3-P4 were collected, centrifuged at 800 rpm for 5 min, and the supernatant was discarded. […] Subsequently, the images were observed and collected under a fluorescence microscope, and the mean fluorescence intensities of MAP-2 and GFAP were statistically analyzed respectively.

[3] = test system: Brain microvascular endothelial cells (BMECs) and brain microvascular smooth muscle cells (BMVSMCs); assay: In vitro angiogenesis assay, BMEC/BMVSMC co-culture on matrigel; assay type: cell-based, mouse; conditions: 0.1 mg/L, 48 h
Procedure, shortened: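 Mouse BMVSMCs (5×10^3) and BMECs (1×10^3) per well, passages 3-6, co-cultured on matrigel at 37 °C, 5% CO2. After medium change on day 4, polypeptide 0.1 mg/L or VEGFA 10/15/20 ng/L for 48 h; Hoechst/Calcein AM stained, imaged by high-content screening and angiogenesis quantified.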

PSD95 and SYP = assay: Western blot of PSD95 and SYP in hippocampus and cortex; assay type: in vivo, SD rats; conditions: treatment for 14 days, vs Vehicle group, P<0.05
Method: as §3, §4

[4] = test system: primary neural stem cells (NSCs); assay: Differentiation of primary neural stem cells, βIII-tubulin fluorescence and Neurite Outgrowth Assay; assay type: cell-based, SD rats; conditions: 100 µg/mL
Procedure, shortened: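 Hippocampal NSCs from newborn SD rats, passage 3, seeded at 5×10^4 cells/mL in 2% FBS DMEM/F12 differentiation medium. Polypeptide at final 100 µg/mL (NGF 50 ng/mL positive control) for 4 days. βIII-tubulin immunofluorescence intensity and neurite outgrowth quantified by high-content imaging.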

[5] = significance vs blank control group
[6] = 4 days, significance vs blank control group

Substance: H-ALPAPGTL-OH [Compound 1, H-Ala-Leu-Pro-Ala-Pro-Gly-Thr-Leu-OH]
- percentage of BrdU-positive cells [1]: significantly increased
- cortical index (tMCAO rats): significantly increased
- mean fluorescence intensity of GFAP [2]: significantly elevated
- mean fluorescence intensity of MAP-2 [2]: significantly elevated
- Branch length [3, 5]: ** (**p < 0.01)
- Cell count [3, 5]: *** (***p < 0.001)
- Number of intersections [3, 5]: * (*p < 0.05)
- angiogenesis-promoting effects ([3]; vs normal group, in words): exhibited angiogenesis-promoting effects
- expression of PSD95 (PSD95 and SYP): significantly increased
- expression of SYP (PSD95 and SYP): significantly increased
- neurite outgrowth (total neurite length, maximum neurite length, neurite terminals, neurite initiation points) ([4]; 4 days, Neurite Outgrowth Assay, in words): promote neurite outgrowth
- Longest neurite length [4, 6]: *** (***p < 0.001)
- Neurite initiation points (branches) [4, 6]: *** (***p < 0.001)
- Number of neurite terminals [4, 6]: *** (***p < 0.001)
- Total neurite length [4, 6]: ** (**p < 0.01)
- mean fluorescence intensity of the neuronal marker protein βIII-tubulin ([4]; 4 days, vs blank control group, in words): significant increase
- differentiation of NSCs into neuronal cells ([4]; conclusion based on the results of the two analytical methods): promote the differentiation of NSCs into neuronal cells with stable effects
- Average fluorescence intensity ([4]; βIII-tubulin, 4 days, significance vs blank control group): ** (**p < 0.01)
